42 molecules from article PMC13266984 (Journal of medicinal chemistry, 2026) can be followed below.

The experiment deals with T1, Human ALDH3A1 (Homo sapiens, UniProt P30838).
T1 sequence (P30838 1-453): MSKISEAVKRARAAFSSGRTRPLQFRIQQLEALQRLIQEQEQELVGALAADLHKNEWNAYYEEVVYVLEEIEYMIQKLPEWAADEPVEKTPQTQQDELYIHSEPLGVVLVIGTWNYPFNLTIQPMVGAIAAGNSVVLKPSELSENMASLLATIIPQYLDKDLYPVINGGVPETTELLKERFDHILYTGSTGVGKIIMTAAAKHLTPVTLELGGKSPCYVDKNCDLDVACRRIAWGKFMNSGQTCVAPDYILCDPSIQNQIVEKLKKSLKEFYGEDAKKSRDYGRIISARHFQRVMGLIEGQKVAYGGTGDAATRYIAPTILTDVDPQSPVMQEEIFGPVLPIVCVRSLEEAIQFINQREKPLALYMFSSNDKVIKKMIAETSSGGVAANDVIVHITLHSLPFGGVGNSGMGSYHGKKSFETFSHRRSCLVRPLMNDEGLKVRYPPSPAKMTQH
Nature of the experiment: ALDH3A1 biochemical assay (benzaldehyde/NADP+, diaphorase-resazurin readout, 1,536-well). Particulars: for CC-v2: curve class.

With `CN1CCOc2c(C(=O)NCCC(N)=O)cc(-c3ccccc3O)cc21` [NCGC00417061-01], the concentration at half-maximal activity (AC50) was 0.63 µM. Also, for the setting “Table S2, in-house analogs”, the Efficacy is reported as -48.22 and the CC-v2 was -1.2.
The like results for `Cc1cc(CNC(=O)c2cc(-c3cnn(C)c3)cc3c2OCCN3C)no1` [NCGC00417081-01] were, in that order, 15.8 µM, -39.10 and -2.2.
`CC(=O)Nc1cccc(-c2cc(C(=O)NCc3cnn(C)c3)c3c(c2)N(C)CCO3)c1` [NCGC00417085-01] yielded a half-maximal activity concentration (AC50) of 28.2 µM. For the setting “Table S2, in-house analogs”, the Efficacy was -77.64 and the CC-v2 was -2.2.
The like results for `CN1CCOc2c(C(=O)NCc3cccnc3)cc(-c3cnn(C)c3)cc21` [NCGC00417099-01] were, in that order, 0.79 µM, -54.49 and -1.4.
`Cc1c(-c2cc(C(=O)NCc3cccnc3)c3c(c2)N(C)CCO3)cnn1C` [NCGC00417124-01] displayed an AC50 of 2.82 µM. Under “Table S2, in-house analogs”, this molecule returned an Efficacy of -61.06 and a CC-v2 of -2.2.
The like results for `Cc1nn(-c2ccc(C(C)C)cc2)c(C)c1[C@@H]1C=C[C@@H](NCc2cccc(C#N)c2)C1` [NCGC00421409-01] were, in that order, 10 µM, -39.09 and -1.2.
In turn, `COCc1nc(N2CCC(Cn3cccn3)CC2)cc([C@H]2C[C@H](N)C2)n1` [NCGC00422389-01] came in with a half-maximal activity concentration (AC50) of 15.8 µM. Where the note is “Table S1, primary screen”, this molecule yielded an Efficacy of -81.78 and a CC-v2 of -3.
The like results for `CCn1nc(C)c(CNC(=O)c2cc(COc3ccc4ncccc4c3)on2)c1C` [NCGC00426725-01] were, in that order, 28.2 µM, -57.51 and -2.2.
Consider `COc1ccc(OCc2cc(C(=O)NC(CO)C(C)C)no2)c2ccccc12` (stereo not drawn) [NCGC00427669-01], for which the AC50 turned out to be 3.98 µM. For the setting “Table S1, primary screen”, the Efficacy was -69.95 and the CC-v2 is -1.2.
The like results for `COCc1noc(-c2ccc(NC[C@H]3CCc4ccccc4O3)nc2)n1` [NCGC00428876-01] were, in that order, 31.6 µM, -39.16 and -2.2.
The like results for `COCCNC(=O)c1ccc2c(c1)N(C)C(CC(=O)NCC(C)C)CO2` (stereo not drawn) [NCGC00429361-01] were, in that order, 28.2 µM, -36.95 and -3.
As for `Cc1cccc(CNC(=O)c2csc(N3CCN(c4ccccc4)CC3)n2)c1` [NCGC00430642-01], the half-maximal activity concentration (AC50) is 1.41 µM and the “Efficacy (ALDH3A1 biochemical)” value is reported as 74%. This molecule registered an IC50 (ALDH3A1 biochemical IC50, text) of 1.41 µM. For the setting “Table S2, in-house analogs”, this molecule returned an Efficacy of -74.85 and a CC-v2 of -1.2. Where the note is “Table S7, pAC50 − cLogP”, this molecule gave an LLE of 2.143.
In turn, `COc1ccc(N2CCN(c3nc(C(=O)NCc4ccc(F)cc4F)cs3)CC2)cc1` [NCGC00430664-01] registered an AC50 of 4.47 µM. Also, under “Table S2, in-house analogs”, the Efficacy is -32.83 and the CC-v2 was -1.4.
Take `COc1ccc(N2CCN(c3nc(C(=O)NCc4ccccc4C)cs3)CC2)cc1` [NCGC00430666-01]: the AC50 amounted to 3.55 µM. Besides, for the setting “Table S2, in-house analogs”, the Efficacy is recorded as -54.85 and the CC-v2 was -1.2.
The like results for `COc1ccc(N2CCN(c3nc(C(=O)NCc4ccc(C)cc4)cs3)CC2)cc1` [NCGC00430668-01] were, in that order, 3.98 µM, -57.20 and -1.2.
`COc1ccc(N2CCN(c3nc(C(=O)NCC4CCCCC4)cs3)CC2)cc1` [NCGC00430670-01] yielded an AC50 of 0.25 µM. Under “Table S2, in-house analogs”, this molecule gave an Efficacy of -27.44 and a CC-v2 of -1.4.
As to `COc1ccc(N2CCN(c3nc(C(=O)NC4CC4)cs3)CC2)cc1` [NCGC00430672-01], the AC50 is 0.11 µM. For the setting “Table S2, in-house analogs”, the Efficacy is listed as -32.51 and the CC-v2 is listed as -1.2.
Take `COc1cccc(N2CCN(c3nc(C(=O)NCc4cccnc4)cs3)CC2)c1` [NCGC00430684-01]: the AC50 turned out to be 14.1 µM. Where the note is “Table S2, in-house analogs”, the Efficacy is listed as -68.54 and the CC-v2 was -2.2.
The like results for `COc1cccc(N2CCN(c3nc(C(=O)NCc4ccncc4)cs3)CC2)c1` [NCGC00430686-01] were, in that order, 12.6 µM, -75.42 and -2.2.
The like results for `COc1cccc(N2CCN(c3nc(C(=O)NCc4ccccc4F)cs3)CC2)c1` [NCGC00430688-01] were, in that order, 2.82 µM, -45.69 and -1.2.
The molecule `O=C(NCc1ccccc1)c1csc(N2CCN(c3ccc(Cl)cc3)CC2)n1` [NCGC00430698-01] showed an AC50 of 2 µM. In addition, under “Table S2, in-house analogs”, the Efficacy is -75.40 and the CC-v2 is -1.2.
Regarding `O=C(NC1CCCC1)c1csc(N2CCN(c3cccc(Cl)c3)CC2)n1` [NCGC00430704-01], the AC50 turned out to be 15.8 µM. Besides, where the note is “Table S2, in-house analogs”, the Efficacy is given as -42.05 and the CC-v2 is given as -2.4.
The molecule `O=C(NCc1ccncc1)c1csc(N2CCN(c3ccccc3F)CC2)n1` [NCGC00430720-01] gave an AC50 of 15.8 µM. Besides, for the setting “Table S2, in-house analogs”, the Efficacy is on record as -57.30 and the CC-v2 is recorded as -2.2.
The like results for `O=C(NCc1ccc(F)cc1)c1csc(N2CCN(c3ccccc3F)CC2)n1` [NCGC00430726-01] were, in that order, 2 µM, -64.54 and -1.2.
On to `O=C(NCC1CC1)c1csc(N2CCN(c3ccccc3F)CC2)n1` [NCGC00430728-01], for which the activity was half-maximal at 28.2 µM (AC50). For the setting “Table S2, in-house analogs”, this molecule yielded an Efficacy of -37.07 and a CC-v2 of -2.4.
The like results for `O=C(NCc1cccs1)c1csc(N2CCN(c3ccccc3F)CC2)n1` [NCGC00430730-01] were, in that order, 6.31 µM, -78.52 and -1.2.
Turning to `O=C(NCc1ccccc1Cl)c1csc(N2CCN(c3ccc(F)cc3)CC2)n1` [NCGC00430734-01], half-maximal activity (AC50) was put at 1.78 µM. Where the note is “Table S2, in-house analogs”, this molecule displayed an Efficacy of -71.11 and a CC-v2 of -1.2.
For the molecule `O=C(NCc1cccs1)c1csc(N2CCN(c3ccc(F)cc3)CC2)n1` [NCGC00430736-01], the activity was half-maximal at 7.08 µM (AC50). Further, for the setting “Table S2, in-house analogs”, the Efficacy is given as -65.35 and the CC-v2 was -1.2.
`COc1cccc(CNC(=O)CCNc2cnc3cnccn23)c1` [NCGC00433986-01] displayed a half-maximal activity concentration (AC50) of 14.1 µM. Also, where the note is “Table S1, primary screen”, the Efficacy is listed as -81.82 and the CC-v2 is given as -2.2.
The like results for `C[S+](=O)([O-])c1ccc(N2CCN(CC3(O)CNCCOC3)CC2)c(F)c1` (stereo not drawn) [NCGC00435271-01] were, in that order, 20 µM, -66.49 and -3.
`CCOc1ccc(C(=O)NC2CCN(c3cc(-c4ccc(OC)cc4)n[nH]3)C2)cc1OCC` (stereo not drawn) [NCGC00438182-01] displayed an AC50 of 2.51 µM. Where the note is “Table S1, primary screen”, this molecule displayed an Efficacy of -29.34 and a CC-v2 of -1.4.
The like results for `CN(C)CC1(O)CCN(C(=O)Cn2cc(C(=O)C3CC3)c3ccccc32)C1` (stereo not drawn) [NCGC00438461-01] were, in that order, 35.5 µM, -41.61 and -2.4.
The like results for `O=C(Nc1ccc2c(c1)OCCO2)N1CCC(Cc2nnc(-c3ccncc3)[nH]2)C1` (stereo not drawn) [NCGC00438506-01] were, in that order, 5.62 µM, -41.70 and -2.4.
The like results for `COc1ccc(NC2CCCN(C(=O)c3cn(CCCN)nn3)C2)cc1` (stereo not drawn) [NCGC00439852-01] were, in that order, 0.89 µM, -61.76 and -1.2.
The molecule `CCCNC(=O)N1CC(Oc2ccc(-c3nc(C)no3)cc2)C1` [NCGC00441061-01] displayed an AC50 of 31.6 µM. Under “Table S1, primary screen”, this molecule returned an Efficacy of -48.80 and a CC-v2 of -2.2.
The like results for `O=C(CCc1cc2n(n1)CCCNC2)Nc1ccc2c(c1)OCCO2` [NCGC00441819-01] were, in that order, 15.8 µM, -25.02 and -2.4.
With `COc1cccc(CN2CC(C(=O)NCc3cc4ccccc4[nH]3)CCC2=O)c1` (stereo not drawn) [NCGC00449252-01], the AC50 came out at 15.8 µM. Under “Table S1, primary screen”, this molecule returned an Efficacy of -45.94 and a CC-v2 of -2.2.
The like results for `Cc1ccc2nc(CN3CCC(c4cccc(C#N)c4)CC3)cc(O)c2c1` [NCGC00449346-01] were, in that order, 4.47 µM, -31.03 and -1.2.
The like results for `O=C(NCc1ccc(Cl)cc1)c1cc2n(n1)CC(c1ccc3c(c1)OCO3)OC2` (stereo not drawn) [NCGC00450299-01] were, in that order, 10 µM, -21.09 and -1.4.
Take `COc1cccc(CN2CC(Oc3ccccc3C(=O)NC3CC3)C2)c1` [NCGC00458073-01]: the AC50 came to 39.8 µM. In addition, for the setting “Table S1, primary screen”, the Efficacy is reported as -51.44 and the CC-v2 was -3.
`COc1ccc(CCN2Cc3cc(NC(=O)Cc4cccs4)ccc3OCC2=O)cc1` [NCGC00475032-01] showed an AC50 of 15.8 µM. Moreover, where the note is “Table S1, primary screen”, the Efficacy is given as -43.09 and the CC-v2 is -2.4.
In turn, `C=CCOc1c(OC)ccc2c1CN(Cc1ccccc1)C(=O)CCN2CC(O)COc1ccc(OC)cc1` (stereo not drawn) [NCGC00501442-01] showed an AC50 of 8.91 µM. Under “Table S1, primary screen”, this molecule registered an Efficacy of -29.51 and a CC-v2 of -1.4.
